Results on 1 compound are retold here after patent publication US20200276181A1, “THIENOISOQUINOLINES AND THEIR DERIVATIVES FOR TARGETING TUBULIN, CH-TOG, AURORA A KINASE, TPX2, CDK5RAP2 AND/OR ASPM” (VALORBEC, SEC, priority 2017, published 2020).

What is called pIC50 is the IC50 on a negative log10 scale, so that one unit is a factor of ten.

For one assay, the system named is HFF1 (non-cancer) cells. The experiment in a line: Percentage of mitotic cells, nocodazole +/- C75. The class given is cell-based. The note with it: 200 nM C75 + 33 or 66 nM nocodazole. On the procedure: FIG. 3A) is a line graph showing cytotoxicity of HeLa cells after treatment with varying concentrations of C75+/−a subthreshold dose of paclitaxel (Taxol™; 3 nM). The IC50 is shown by the dotted line. Bars show standard deviation. […] The bars indicate standard deviation. FIG. 3C) is a series of bar graphs showing the proportion of HCT 116 cells with bipolar aligned (grey), bipolar misaligned (dark grey), multipolar/fragmented (light grey, top portion of each bar) or monopolar (black) spindles 7 hours after treatment with control (DMSO), varying concentrations of paclitaxel or C75, or both as indicated (n=691; N=3). The bars show standard deviation. The combination treatments were compared to paclitaxel and C75 on their own by calculating ratios varying from the predicted ratio, and found to synergize at 100 and 200 nM. FIG. 3D) is bar graph showing the average distance between centrosome fragments in HCT116 cells after treatments as shown. While centrosome fragments moved closer together with increased concentrations of paclitaxel, they moved further apart with increased concentrations of C75 (n=105; N=3). […] FIG. 3F) is a line graph showing the percentage of mitotic HeLa or HFF1 cells treated with a range of nocodazole concentrations+/−C75 as indicated. The bars indicate standard deviation. […]

Assay [1] has as its system MCF7, BT549, A549, HCT116, HeLa cells. Description: Viability in cancer vs non-cancer cell lines, summary of Table 3. The class given is cell-based, human. As for the experimental part: To date, 30 variants with different structural modifications have been made. […] In particular, it is shown that C75 causes death in multiple cancer cells with IC50 values in the 100-400 nM range, including breast cancers (MCF7, BT549), lung cancer (A549), colorectal cancer (HCT116) in addition to HeLa cells (cervical cancer).

A further assay concerns HeLa cells. The experiment in a line: Viability IC50 of C75 in combination with subthreshold tubulin-targeting drug. The class given is cell-based, human. From the text:
Bars show standard deviation. […] The bars indicate standard deviation. […] The bars indicate standard deviation. […] The scale bar for all cells is 10 μm.
Bars show standard deviation. […] The scale bar for all cells is 10 μm. In FIG. 4F), bar graphs show changes in the proportion of HCT 116 cells with the different spindle phenotypes as in FIG. 4D (n=2368; N=3). […] Bars indicate standard deviation.

In the next assay the test system is HCT 116 cells. The experiment in a line: Spindle phenotypes, paclitaxel and C75 combination. It is filed as cell-based. To be noted: 7 hours, at 100 and 200 nM. As for the experimental part: FIG. 3A) is a line graph showing cytotoxicity of HeLa cells after treatment with varying concentrations of C75+/−a subthreshold dose of paclitaxel (Taxol™; 3 nM). The IC50 is shown by the dotted line. Bars show standard deviation. FIG. 3B) is a line graph showing the percentage of mitotic HeLa or HFF1 cells treated with a range of paclitaxel concentrations+/−C75 as indicated. The bars indicate standard deviation. FIG. 3C) is a series of bar graphs showing the proportion of HCT 116 cells with bipolar aligned (grey), bipolar misaligned (dark grey), multipolar/fragmented (light grey, top portion of each bar) or monopolar (black) spindles 7 hours after treatment with control (DMSO), varying concentrations of paclitaxel or C75, or both as indicated (n=691; N=3). The bars show standard deviation. The combination treatments were compared to paclitaxel and C75 on their own by calculating ratios varying from the predicted ratio, and found to synergize at 100 and 200 nM. FIG. 3D) is bar graph showing the average distance between centrosome fragments in HCT116 cells after treatments as shown. While centrosome fragments moved closer together with increased concentrations of paclitaxel, they moved further apart with increased concentrations of C75 (n=105; N=3). […]

pIC50: −log10 of the molar value.

Turning to `COc1ccc(S(=O)(=O)N2Cc3ccccc3-c3sc(Br)cc32)cc1` [Compound C75], the “change in proportion of mitotic cells” value in the assay with HFF1 (non-cancer) cells is “no change”. Besides, in assay [1], the “efficacy (effect on viability) in cancer cells vs. non-cancer cells” value is “higher efficacy”. In assay [1] (Homo sapiens, MCF7, BT549, A549, HCT116, HeLa, read-out: IC50 values in multiple cancer cells), the pIC50 was 6.40 to 7.00. Also, the “lowering of the IC50 of C75 by subthreshold colchicine” value in the assay on HeLa cells (+ 3 nM colchicine) is roughly 2 fold. In the assay on HeLa cells (+ 3 nM paclitaxel), the “reduction of the IC50 of C75 by subthreshold paclitaxel” value was roughly 2 fold. In addition, in the assay on HCT 116 cells, the “combination with paclitaxel vs each alone, spindle phenotypes” value is on record as “synergize”.
